Legend:
Type in all cases: in vivo
[1] = system: Setaria faberi (SETFA); test: Pre-emergence Test (glasshouse, percentage damage to the plant); conditions: 1000 g/ha unless otherwise stated; for percentage damage to the plant, SETFA: five-point scale; for percentage damage to the plant, SETFA (five-point scale): Setaria faberi
[2] = system: Abutilon theophrasti (ABUTH); test: as above; conditions: 1000 g/ha unless otherwise stated; for percentage damage to the plant, ABUTH: five-point scale; for percentage damage to the plant, ABUTH (five-point scale): Abutilon theophrasti
[3] = system: Amaranthus retoflexus (AMARE); test: as above; conditions: 1000 g/ha unless otherwise stated; for percentage damage to the plant, AMARE: five-point scale; for percentage damage to the plant, AMARE (five-point scale): Amaranthus retoflexus
[4] = system: Ipomoea hederacea (IPOHE); test: as above; conditions: 1000 g/ha unless otherwise stated; for percentage damage to the plant, IPOHE: five-point scale; for percentage damage to the plant, IPOHE (five-point scale): Ipomoea hederacea
[5] = system: Echinochloa crus-galli (ECHCG); test: as above; conditions: 1000 g/ha unless otherwise stated; for percentage damage to the plant, ECHCG: five-point scale; for percentage damage to the plant, ECHCG (five-point scale): Echinochloa crus-galli
[6] = system: Zea mays (ZEAMX); test: as above; conditions: 1000 g/ha unless otherwise stated; for percentage damage to the plant, ZEAMX: five-point scale; for percentage damage to the plant, ZEAMX (five-point scale): Zea mays
[7] = system: Amaranthus retoflexus (AMARE); test: Post-emergence Test (glasshouse, percentage damage to the plant); conditions: 1000 g/ha unless otherwise stated, evaluated after 13 days; for Post-emergence Test AMARE, percentage damage to the plant (five-point scale): post-emergence spray; for AMARE, percentage damage caused to the plant (five-point scale): post-emergence
Summary of the method: (§1)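 Compound formulated in 50:50 acetone/water with 0.5% Tween 20 was diluted to an aqueous spray and applied at 1000 g/ha, unless otherwise stated, onto sown pots. Evaluation after 13 days gave percentage damage, banded into a 1–5 score.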

[8] = system: Abutilon theophrasti (ABUTH); test: as above; conditions: 1000 g/ha unless otherwise stated, evaluated after 13 days; for Post-emergence Test ABUTH, percentage damage to the plant (five-point scale): post-emergence spray; for ABUTH, percentage damage caused to the plant (five-point scale): post-emergence
Summary of the method: as §1

[9] = system: Zea mays (ZEAMX); test: as above; conditions: 1000 g/ha unless otherwise stated, evaluated after 13 days; for Post-emergence Test ZEAMX, percentage damage to the plant (five-point scale): post-emergence spray; for ZEAMX, percentage damage caused to the plant (five-point scale): post-emergence
Summary of the method: as §1

[10] = system: Echinochloa crus-galli (ECHCG); test: as above; conditions: post-emergence spray, 1000 g/ha unless otherwise stated, evaluated after 13 days
Summary of the method: as §1

[11] = system: Setaria faberi (SETFA); test: as above; conditions: 1000 g/ha unless otherwise stated, evaluated after 13 days; for Post-emergence Test SETFA, percentage damage to the plant (five-point scale): post-emergence spray; for SETFA, percentage damage caused to the plant (five-point scale): post-emergence
Summary of the method: as §1

[12] = system: Ipomoea hederacea (IPOHE); test: as above; conditions: 1000 g/ha unless otherwise stated, evaluated after 13 days; for Post-emergence Test IPOHE, percentage damage to the plant (five-point scale): post-emergence spray; for IPOHE, percentage damage caused to the plant (five-point scale): post-emergence
Summary of the method: as §1

Row | SMILES | percentage damage to the plant, SETFA [1] | percentage damage to the plant, ABUTH [2] | percentage damage to the plant, AMARE [3] | percentage damage to the plant, IPOHE [4] | percentage damage to the plant, ECHCG [5] | percentage damage to the plant, ZEAMX [6] | Post-emergence Test AMARE, percentage damage to the plant (five-point scale) [7] | Post-emergence Test ABUTH, percentage damage to the plant (five-point scale) [8] | Post-emergence Test ZEAMX, percentage damage to the plant (five-point scale) [9] | Post-emergence Test ECHCG, percentage damage to the plant (five-point scale) [10] | Post-emergence Test SETFA, percentage damage to the plant (five-point scale) [11] | Post-emergence Test IPOHE, percentage damage to the plant (five-point scale) [12] | other results
1 | CCOc1cccc(-c2c(C)n(CC)c(-c3ccc(Cl)c(Cl)c3)c(C(=O)O)c2=O)c1 [Compound 98, 2-(3,4-dichlorophenyl)-5-(3-ethoxyphenyl)-1-ethyl-6-methyl-4-oxo-pyridine-3-carboxylic acid] | 3 (3=41-60%) | 1 (1=0-20%) | 2 (2=21-40%) | 1 (1=0-20%) | 1 (1=0-20%) | 1 (1=0-20%) | 1 (1=0-20%) | 2 (2=21-40%) | 1 (1=0-20%) | 1 (1=0-20%) | 1 (1=0-20%) | 2 (2=21-40%) | –
2 | CCn1c(C)c(-c2cncc(F)c2)c(=O)c(C(=O)O)c1-c1ccc(Cl)c(Cl)c1 [Compound 85, 2-(3,4-dichlorophenyl)-1-ethyl-5-(5-fluoro-3-pyridyl)-6-methyl-4-oxo-pyridine-3-carboxylic acid] | 4 (4=61-80%) | 2 (2=21-40%) | 1 (1=0-20%) | 1 (1=0-20%) | 1 (1=0-20%) | 1 (1=0-20%) | 1 (1=0-20%) | 3 (3=41-60%) | 1 (1=0-20%) | 1 (1=0-20%) | 3 (3=41-60%) | 1 (1=0-20%) | –
3 | CCn1c(C)c(-c2cccc(OC)n2)c(=O)c(C(=O)O)c1-c1ccc(Cl)c(Cl)c1 [Compound 113, 2-(3,4-dichlorophenyl)-1-ethyl-5-(6-methoxy-2-pyridyl)-6-methyl-4-oxo-pyridine-3-carboxylic acid] | 4 (4=61-80%) | 3 (3=41-60%) | 1 (1=0-20%) | 2 (2=21-40%) | 1 (1=0-20%) | 2 (2=21-40%) | 3 (3=41-60%) | 4 (4=61-80%) | 2 (2=21-40%) | 3 (3=41-60%) | 4 (4=61-80%) | 2 (2=21-40%) | –
4 | CCNC(=O)c1cc(-c2c(C)n(CC)c(-c3ccc(Cl)c(Cl)c3)c(C(=O)O)c2=O)ccc1Cl [Compound 72, 5-[4-chloro-3-(ethylcarbamoyl)phenyl]-(3,4-dichlorophenyl)-1-ethyl-6-methyl-4-oxo-pyridine-3-carboxylic acid] | 1 (1=0-20%) | 1 (1=0-20%) | 1 (1=0-20%) | 1 (1=0-20%) | 1 (1=0-20%) | 1 (1=0-20%) | 1 (1=0-20%) | 1 (1=0-20%) | 1 (1=0-20%) | 1 (1=0-20%) | 1 (1=0-20%) | 1 (1=0-20%) | –
5 | CCn1c(C)c(-c2ccn(C)c(=O)c2)c(=O)c(C(=O)O)c1-c1ccc(Cl)c(Cl)c1 [Compound 58, 2-(3,4-dichlorophenyl)-1-ethyl-6-methyl-5-(1-methyl-2-oxo-4-pyridyl)-4-oxo-pyridine-3-carboxylic acid] | 1 (1=0-20%) | 1 (1=0-20%) | 1 (1=0-20%) | 1 (1=0-20%) | 1 (1=0-20%) | 1 (1=0-20%) | 1 (1=0-20%) | 1 (1=0-20%) | 1 (1=0-20%) | 1 (1=0-20%) | 1 (1=0-20%) | 1 (1=0-20%) | –
6 | CCn1c(C)c(-c2ccc(Cl)cc2)c(=O)c(C(=O)O)c1-c1ccc(Br)cc1F [Compound 133, 2-(4-bromo-2-fluoro-phenyl)-5-(4-chlorophenyl)-1-ethyl-6-methyl-4-oxo-pyridine-3-carboxylic acid] | 5 (5=81-100%) | 3 (3=41-60%) | 2 (2=21-40%) | 2 (2=21-40%) | 4 (4=61-80%) | 2 (2=21-40%) | 4 (4=61-80%) | 2 (2=21-40%) | 1 (1=0-20%) | – | 1 (1=0-20%) | 3 (3=41-60%) | –
7 | CCn1c(CCOC)c(-c2ccc(Cl)cc2)c(=O)c(C(=O)OC)c1-c1ccc(Cl)c(Cl)c1 [Compound 202, methyl 5-(4-chlorophenyl)-2-(3,4-dichlorophenyl)-1-ethyl-6-(2-methoxyethyl)-4-oxo-pyridine-3-carboxylate] | – | – | – | – | – | – | – | – | – | – | – | – | percentage damage to the plant, SETFA (five-point scale) [1]: 0; percentage damage to the plant, ABUTH (five-point scale) [2]: 0; percentage damage to the plant, AMARE (five-point scale) [3]: 0; percentage damage to the plant, IPOHE (five-point scale) [4]: 0; percentage damage to the plant, ECHCG (five-point scale) [5]: 0; percentage damage to the plant, ZEAMX (five-point scale) [6]: 0; AMARE, percentage damage caused to the plant (five-point scale) [7]: 0; ABUTH, percentage damage caused to the plant (five-point scale) [8]: 0; ZEAMX, percentage damage caused to the plant (five-point scale) [9]: 1 (1=0-20%); SETFA, percentage damage caused to the plant (five-point scale) [11]: 0; IPOHE, percentage damage caused to the plant (five-point scale) [12]: 1 (1=0-20%)
8 | CCn1c(-c2ccc(Cl)c(Cl)c2)c(C(=O)OC)c(=O)c(-c2ccc(Cl)cc2)c1C(F)F [Compound 205, methyl 5-(4-chlorophenyl)-2-(3,4-dichlorophenyl)-6-(difluoromethyl)-1-ethyl-4-oxo-pyridine-3-carboxylate] | – | – | – | – | – | – | – | – | – | – | – | – | percentage damage to the plant, SETFA (five-point scale) [1]: 0; percentage damage to the plant, ABUTH (five-point scale) [2]: 0; percentage damage to the plant, AMARE (five-point scale) [3]: 0; percentage damage to the plant, IPOHE (five-point scale) [4]: 0; percentage damage to the plant, ECHCG (five-point scale) [5]: 0; percentage damage to the plant, ZEAMX (five-point scale) [6]: 0; AMARE, percentage damage caused to the plant (five-point scale) [7]: 1 (1=0-20%); ABUTH, percentage damage caused to the plant (five-point scale) [8]: 0; ZEAMX, percentage damage caused to the plant (five-point scale) [9]: 0; SETFA, percentage damage caused to the plant (five-point scale) [11]: 0; IPOHE, percentage damage caused to the plant (five-point scale) [12]: 1 (1=0-20%)

From US12660819B2, “Herbicidal derivatives” (SYNGENTA CROP PROTECTION AG, priority 2020, dated 2026)
